Assay results from patent publication US10611740B2, “Aryl dihydro-2H-benzo[b][1,4]oxazine sulfonamide and related compounds for use as agonists of RORγ and the treatment of disease” (Lycera Corporation, priority 2015, dated 2020).

Key:
Gal4-RORγ-LBD = biological target: T1, Gal4-RORγ-LBD (Homo sapiens, UniProt P51449); assay: Gal4-RORγ Luciferase Reporter Assay in HEK-293T Cells; type: cell-based; conditions: HEK-293 cells
T1 construct: expressed in transfected cells; host or cells: HEK-293 cells (pcDNA3.1neo plasmid)
T1 sequence (P51449 269-508 limits assumed): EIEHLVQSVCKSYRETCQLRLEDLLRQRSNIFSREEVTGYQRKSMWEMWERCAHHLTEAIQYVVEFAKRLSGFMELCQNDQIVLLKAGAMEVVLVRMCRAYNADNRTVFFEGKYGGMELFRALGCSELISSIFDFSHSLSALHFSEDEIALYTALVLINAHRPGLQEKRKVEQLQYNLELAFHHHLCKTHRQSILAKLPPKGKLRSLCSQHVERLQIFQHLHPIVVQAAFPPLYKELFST
Outline: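 Luminescence read-out (One-Glo, 10 min RT) after overnight compound exposure at 37 °C in HEK-293 cells carrying Gal4-RORγ-LBD plus a Gal4-luciferase reporter, in the presence of 2 μM ursolic acid. Max Response is the upper plateau from a 4-parameter logistic fit, normalized to untreated signal = 100.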

RORγ-LBD = biological target: T2, RORγ-LBD (Homo sapiens, UniProt P51449); assay: RORγ-Ligand Binding Domain (LBD) TR-FRET Assay; type: biochemical;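 for TR-FRET Assay Max Response: 665/615 nm ratio relative to signal without ursolic acid or compound set at 100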
T2 construct: made in house; host or cells: SF9 cells (baculovirus)
T2 sequence (P51449 269-508 limits assumed): T1 sequence (P51449 269-508 limits assumed)
Outline: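 TR-FRET read-out using a biotin-tagged SRC1 coactivator LXXLL peptide (200 nM final), with the antagonist ursolic acid present at 2 μM final. Receptor is His-tagged LBD expressed in SF9 cells, ~3 nM final in pH 7.0 Tris/KCl/EDTA/DTT/BSA buffer; compounds in 1% DMSO final.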

[1] = luciferase reporter, with 2 μM ursolic acid

| Compound | EC50 (RORγ-LBD) [nM] | EC50 (Gal4-RORγ-LBD; 2 μM ursolic acid) [nM] | EC50 (Gal4-RORγ-LBD; [1]) [nM] | Gal4-RORγ Assay Max Response (Gal4-RORγ-LBD; 2 μM ursolic acid) | TR-FRET Assay Max Response (RORγ-LBD) | Gal4-RORγ Assay Max Response (Gal4-RORγ-LBD; [1]) |
| --- | --- | --- | --- | --- | --- | --- |
| Cn1cnc(-c2ccc3c(c2)N(S(=O)(=O)c2cccc(C(F)(F)F)c2)C[C@H](CCC(=O)O)O3)n1 [Compound 4M, (S)-3-(6-(1-methyl-1H-1,2,4-triazol-3-yl)-4-((3-(trifluoro-methyl)phenyl)sulfonyl)-3,4-dihydro-2H-benzo[b][1,4]-oxazin-2-yl)propanoic acid] | < 500 | – | > 10000 | – | **** (The symbol “****” indicates a value greater than 200) | * (The symbol “*” indicates a value in the range of 25 to 90) |
| Cn1cncc1-c1ccc2c(c1)N(S(=O)(=O)c1cccc(C(F)(F)F)c1)C[C@H](CCC(=O)O)O2 [Compound 4K, (S)-3-(6-(1-methyl-1H-imidazol-5-yl)-4-((3-(trifluoromethyl)-phenyl)sulfonyl)-3,4-dihydro-2H-benzo[b][1,4]oxazin-2-yl)propanoic acid] | 500 to 5000 | – | > 10000 | – | **** (The symbol “****” indicates a value greater than 200) | – |
| CC(C)(O)CC(=O)NC[C@H]1CN(S(=O)(=O)c2cccc(C(F)(F)F)c2)c2cc(-c3cccc(F)c3Cl)ccc2O1 [Compound 30CG, (S)-N-((6-(2-chloro-3-fluoro-phenyl)-4-((3-(trifluoromethyl)-phenyl)sulfonyl)-3,4-dihydro-2H-benzo[b][1,4]oxazin-2-yl)methyl)-3-hydroxy-3-methylbutanamide] | < 500 | 500 to 5000 | – | * (The symbol “*” indicates a value in the range of 25 to 90) | *** (The symbol “***” indicates a value in the range of greater than 150 to 200) | – |
| COc1cccc(-c2ccc3c(c2)N(S(=O)(=O)c2cccc(C(F)(F)F)c2)C[C@H](CCCC(=O)O)O3)c1 [Compound 21B, (S)-4-(6-(3-methoxyphenyl)-4-((3-(trifluoromethyl)phenyl)sulfonyl)-3,4-dihydro-2H-benzo[b][1,4]-oxazin-2-yl)butanoic acid] | < 500 | – | < 500 | – | **** (The symbol “****” indicates a value greater than 200) | ** (The symbol “**” indicates a value in the range of greater than 90 to 150) |
| O=C(NC[C@H]1CN(S(=O)(=O)c2cccc(C(F)(F)F)c2)c2cc(-c3cccc(F)c3Cl)ccc2O1)C(=O)C1CC1 [Compound 30CA, (S)-N-((6-(2-chloro-3-fluoro-phenyl)-4-((3-(trifluoromethyl)-phenyl)sulfonyl)-3,4-dihydro-2H-benzo[b][1,4]oxazin-2-yl)methyl)-2-cyclopropyl-2-oxoacetamide] | < 500 | < 500 | – | * (The symbol “*” indicates a value in the range of 25 to 90) | *** (The symbol “***” indicates a value in the range of greater than 150 to 200) | – |
| CC(C)(CC[C@H]1CN(S(=O)(=O)c2cccc(C(F)(F)F)c2)c2cc(-c3cccc(C(F)(F)F)n3)ccc2O1)C(=O)O [Compound 32P, (S)-2,2-dimethyl-4-(4-((3-(trifluoromethyl)phenyl)sulfonyl)-6-(6-(trifluoromethyl)pyridin-2-yl)-3,4-dihydro-2H-benzo[b][1,4]oxazin-2-yl)butanoic acid] | < 500 | – | < 500 | – | *** (The symbol “***” indicates a value in the range of greater than 150 to 200) | ** (The symbol “**” indicates a value in the range of greater than 90 to 150) |
| O=C(O)CC[C@H]1CN(S(=O)(=O)c2cccc(C(F)(F)F)c2)c2cc(-c3cccc(O)c3)ccc2O1 [Compound 2AU, (S)-3-(6-(3-hydroxyphenyl)-4-((3-(trifluoromethyl)phenyl)-sulfonyl)-3,4-dihydro-2H-benzo[b][1,4]oxazin-2-yl)propanoic acid] | < 500 | – | 500 to 5000 | – | *** (The symbol “***” indicates a value in the range of greater than 150 to 200) | * (The symbol “*” indicates a value in the range of 25 to 90) |

Continued, in another order:

| EC50 (RORγ-LBD) [nM] | EC50 (Gal4-RORγ-LBD; 2 μM ursolic acid) [nM] | EC50 (Gal4-RORγ-LBD; [1]) [nM] | Compound | Gal4-RORγ Assay Max Response (Gal4-RORγ-LBD; 2 μM ursolic acid) | TR-FRET Assay Max Response (RORγ-LBD) | Gal4-RORγ Assay Max Response (Gal4-RORγ-LBD; [1]) |
| --- | --- | --- | --- | --- | --- | --- |
| < 500 | – | – | O=C(O)[C@]1(C[C@H]2CN(S(=O)(=O)c3cccc(C(F)(F)F)c3)c3cc(-c4cc(F)ccc4F)ccc3O2)CCNC1=O [Compound 77A, (S)-3-(((S)-6-(2,5-difluorophenyl)-4-((3-(trifluoromethyl)phenyl)-sulfonyl)-3,4-dihydro-2H-benzo[b][1,4]oxazin-2-yl)methyl) 2-oxopyrrolidine-3-carboxylic acid] | **** (The symbol “****” indicates a value greater than 200) | ** (The symbol “**” indicates a value in the range of greater than 90 to 150) | – |
| < 500 | < 500 | – | O=C(O)[C@@]1(C[C@H]2CN(S(=O)(=O)c3cccc(C(F)(F)F)c3)c3cc(-c4cc(F)ccc4F)ccc3O2)CCNC1=O [Compound 77B, (R)-3-(((S)-6-(2,5-difluorophenyl)-4-((3-(trifluoromethyl)phenyl)-sulfonyl)-3,4-dihydro-2H-benzo[b][1,4]oxazin-2-yl)methyl)-2-oxopyrrolidine-3-carboxylic acid] | ** (The symbol “**” indicates a value in the range of greater than 90 to 150) | *** (The symbol “***” indicates a value in the range of greater than 150 to 200) | – |
| < 500 | – | < 500 | CN(CCC(=O)O)C(=O)NCC[C@H]1CN(S(=O)(=O)c2cccc(C(F)(F)F)c2)c2cc(-c3cc(F)ccc3F)ccc2O1 [Compound 23Y, (S)-3-(3-(2-(6-(2,5-difluoro-phenyl)-4-((3-(trifluoromethyl)-phenyl)sulfonyl)-3,4-dihydro-2H-benzo[b][1,4]oxazin-2-yl)ethyl)-1-methylureido)propanoic acid] | – | *** (The symbol “***” indicates a value in the range of greater than 150 to 200) | ** (The symbol “**” indicates a value in the range of greater than 90 to 150) |
| < 500 | – | < 500 | O=C(O)CC[C@H]1CN(S(=O)(=O)c2cccc(C(F)(F)F)c2)c2cc(-c3cccc(F)c3F)ccc2O1 [Compound 1, (S)-3-(6-(2,3-difluorophenyl)-4-((3-(trifluoromethyl)phenyl)sulfonyl)-3,4-dihydro-2H-benzo[b][1,4]oxazin-2-yl)propanoic acid] | – | *** (The symbol “***” indicates a value in the range of greater than 150 to 200) | *** (The symbol “***” indicates a value in the range of greater than 150 to 200) |
| < 500 | – | < 500 | O=C(O)CC[C@H]1CN(S(=O)(=O)c2cc(F)cc(C(F)(F)F)c2)c2cc(-c3cc(F)ccc3F)ccc2O1 [Compound 6J, (S)-3-(6-(2,5-difluorophenyl)-4-((3-fluoro-5-(trifluoromethyl)phenyl)-sulfonyl)-3,4-dihydro-2H-benzo[b][1,4]oxazin-2-yl)propanoic acid] | – | *** (The symbol “***” indicates a value in the range of greater than 150 to 200) | ** (The symbol “**” indicates a value in the range of greater than 90 to 150) |
| < 500 | – | < 500 | CNS(=O)(=O)NC[C@H]1CN(S(=O)(=O)c2cccc(C(F)(F)F)c2)c2cc(-c3cc(F)ccc3F)ccc2O1 [Compound 44, ([[(2S)-6-(2,5-difluorophenyl)-4-[[3-(trifluoromethyl)benzene]sulfonyl]-3,4-dihydro-2H-1,4-benzoxazin-2-yl]methyl]sulfamoyl)(methyl)amine] | – | **** (The symbol “****” indicates a value greater than 200) | ** (The symbol “**” indicates a value in the range of greater than 90 to 150) |
| < 500 | – | < 500 | COc1ccc(Cl)cc1-c1ccc2c(c1)N(S(=O)(=O)c1cccc(C(F)(F)F)c1)C[C@H](CCC(=O)O)O2 [Compound 2S, (S)-3-(6-(5-chloro-2-methoxyphenyl)-4-((3-(trifluoromethyl)phenyl)-sulfonyl)-3,4-dihydro-2H-benzo[b][1,4]oxazin-2-yl)propanoic acid] | – | **** (The symbol “****” indicates a value greater than 200) | ** (The symbol “**” indicates a value in the range of greater than 90 to 150) |
| < 500 | – | < 500 | O=S(=O)(c1cccc(C(F)(F)F)c1)N1C[C@H](CCCO)Oc2ccc(-c3ccc(F)cc3F)cc21 [Compound 34A, (S)-3-(6-(2,4-difluorophenyl)-4-((3-(trifluoromethyl)phenyl)-sulfonyl)-3,4-dihydro-2H-benzo[b][1,4]oxazin-2-yl)propan-1-ol] | – | **** (The symbol “****” indicates a value greater than 200) | * (The symbol “*” indicates a value in the range of 25 to 90) |
